Laboratory results taken from the supplement of paper PMC10307832.

Columns and labels:
Test in all cases: relative viability (nuclei count vs DMSO), 5 days (fraction); higher = more cells survive
Ponatinib + Crizotinib = compound: Cc1ccc(C(=O)Nc2ccc(CN3CCN(C)CC3)c(C(F)(F)F)c2)cc1C#Cc1cnc2cccnn12 [Ponatinib] + C[C@@H](Oc1cc(-c2cnn(C3CCNCC3)c2)cnc1N)c1c(Cl)ccc(F)c1Cl [Crizotinib] (partner 1 µM)
In short: (§1)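 Nuclei were stained with Hoechst during a one-step fixation (final 0.05% Triton X-100, 1% formaldehyde, 1 ug/ml Hoechst) carried out 5 days after dosing, then counted on 4× images. The cells, lung cancer lines in 1536-well plates, had been dosed by pin tool the day after seeding with one drug alone or a fixed anchor-drug dose plus five library-drug doses (not always all listed) in √10 steps. Relative viability is the nuclei count in treated wells divided by that in vehicle wells, and each value is the median of duplicate plates.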

Ponatinib + Bortezomib = compound: Cc1ccc(C(=O)Nc2ccc(CN3CCN(C)CC3)c(C(F)(F)F)c2)cc1C#Cc1cnc2cccnn12 [Ponatinib] + CC(C)C[C@H](NC(=O)[C@H](Cc1ccccc1)NC(=O)c1cnccn1)B(O)O [Bortezomib] (partner 0.002 µM)
In short: as §1

Pazopanib + Bortezomib = compound: Cc1ccc(Nc2nccc(N(C)c3ccc4c(C)n(C)nc4c3)n2)cc1S(N)(=O)=O [Pazopanib] + CC(C)C[C@H](NC(=O)[C@H](Cc1ccccc1)NC(=O)c1cnccn1)B(O)O [Bortezomib] (partner 0.002 µM)
In short: as §1

Pazopanib + AZD7762 = compound: Cc1ccc(Nc2nccc(N(C)c3ccc4c(C)n(C)nc4c3)n2)cc1S(N)(=O)=O [Pazopanib] + NC(=O)Nc1cc(-c2cccc(F)c2)sc1C(=O)N[C@H]1CCCNC1 [AZD7762] (partner 0.2 µM)
In short: as §1

Cell Line | relative viability (Ponatinib + Crizotinib; first compound 0.002 µM) | relative viability (Ponatinib + Crizotinib; first compound 0.006325 µM) | relative viability (Ponatinib + Crizotinib; first compound 0.06325 µM) | relative viability (Ponatinib + Crizotinib; first compound 0.2 µM) | relative viability (Ponatinib + Bortezomib; first compound 0.002 µM) | relative viability (Ponatinib + Bortezomib; first compound 0.006325 µM) | relative viability (Ponatinib + Bortezomib; first compound 0.06325 µM) | relative viability (Ponatinib + Bortezomib; first compound 0.2 µM) | relative viability (Pazopanib + Bortezomib; first compound 0.01 µM) | relative viability (Pazopanib + Bortezomib; first compound 0.03162 µM) | relative viability (Pazopanib + Bortezomib; first compound 0.1 µM) | relative viability (Pazopanib + Bortezomib; first compound 0.3162 µM) | relative viability (Pazopanib + Bortezomib; first compound 1 µM) | relative viability (Pazopanib + AZD7762; first compound 0.01 µM) | relative viability (Pazopanib + AZD7762; first compound 0.03162 µM) | relative viability (Pazopanib + AZD7762; first compound 0.1 µM) | relative viability (Pazopanib + AZD7762; first compound 0.3162 µM) | relative viability (Pazopanib + AZD7762; first compound 1 µM)
NCI-H1734 | 0.638 | 0.657 | 0.647 | 0.577 | 0.87 | 0.957 | 0.917 | 0.905 | 0.846 | 0.897 | 1.01 | 0.996 | 0.935 | 0.519 | 0.561 | 0.555 | 0.689 | 0.623
HOP-62 | 0.876 | 0.94 | 0.901 | 0.917 | 0.728 | 0.571 | 0.597 | 0.701 | 0.642 | 0.724 | – | 0.935 | 0.923 | 0.739 | 0.589 | 0.527 | 0.528 | 0.478
LOU-NH91 | 0.709 | 0.777 | 0.758 | 0.731 | 0.399 | 0.543 | 0.557 | 0.568 | 0.484 | 0.481 | 0.496 | 0.475 | 0.506 | 0.653 | 0.758 | 0.78 | 0.836 | 0.815
ChaGo-K-1 | 1.12 | 1.16 | 1.08 | 0.95 | 0.786 | 1.01 | 1.14 | 0.968 | 1.12 | 1.1 | 0.952 | 0.91 | 0.951 | 0.859 | 0.859 | 0.971 | 0.82 | 0.865
PC-3 [JPC-3] | 0.925 | 1.04 | 1.11 | 0.989 | 0.826 | 0.812 | 0.961 | 0.815 | 0.957 | 0.948 | 0.814 | 0.868 | 0.774 | – | 0.742 | 0.725 | 0.926 | 0.937
NCI-H1437 | 0.899 | 0.957 | 0.967 | 0.763 | 0.572 | 0.681 | 0.608 | 0.66 | 0.617 | 0.537 | 0.428 | 0.518 | 0.583 | 1.05 | 1.13 | 1.19 | 1.03 | 1.03
NCI-H1666 | 0.951 | 0.978 | 1.06 | 0.989 | 0.736 | 0.832 | 0.985 | 1.11 | 0.707 | 0.829 | 0.77 | 1.01 | 1.35 | 0.871 | 0.828 | 0.788 | 0.823 | 0.848
NCI-H1651 | 0.835 | 0.852 | 0.897 | 0.876 | 0.936 | 0.869 | 0.975 | 0.983 | 0.753 | 0.954 | 0.965 | 0.97 | 0.916 | 0.438 | 0.451 | 0.484 | 0.437 | 0.435
NCI-H1755 | 0.858 | 0.869 | 0.896 | 0.822 | 0.953 | 0.99 | 0.98 | 1.01 | 0.883 | 0.973 | 0.966 | 0.928 | 1.04 | 0.434 | 0.433 | 0.453 | 0.42 | 0.439
NCI-H727 | 0.853 | 0.686 | 0.893 | 0.765 | 0.625 | 0.856 | 0.851 | 0.824 | 0.791 | 0.938 | 0.98 | 0.928 | 1.11 | 0.618 | – | 0.609 | 0.663 | 0.562
HARA | 0.972 | 1.01 | 0.973 | 1.02 | 1.06 | 1.1 | 1.21 | 0.861 | 1.14 | 1.08 | 1.25 | 1.22 | 1.08 | 0.428 | 0.303 | 0.255 | 0.35 | 0.349
NCI-H647 | 0.851 | 1.07 | 1.12 | 0.989 | 0.825 | 0.964 | 1.15 | 0.969 | 0.822 | 0.93 | 0.963 | 1.07 | 1.05 | 0.373 | 0.635 | 0.469 | 0.428 | 0.546
NCI-H23 | 0.471 | 0.488 | 0.504 | 0.558 | 0.942 | 1.04 | 1.15 | 0.853 | 0.813 | 1.1 | 1.11 | 1.07 | 1.41 | 0.223 | 0.257 | 0.221 | 0.374 | 0.271
LCLC-97TM1 | – | 0.369 | – | 0.413 | 0.309 | 0.818 | 0.74 | 0.483 | 0.506 | 0.693 | 0.482 | 0.737 | 0.592 | – | 0.241 | 0.248 | 0.303 | 0.188
EPLC-272H | 0.787 | 0.753 | 0.886 | 0.811 | 0.76 | 0.894 | 0.856 | 0.88 | 0.765 | 1.07 | 0.843 | 1.12 | 1.1 | – | 0.227 | 0.238 | 0.132 | 0.217
NCI-H1915 | 0.801 | 0.844 | 0.839 | 0.794 | 0.849 | 0.975 | 0.923 | 0.871 | 0.936 | 0.963 | 0.983 | 0.972 | 0.884 | 0.716 | 0.658 | 0.667 | 0.68 | 0.616
NCI-H3122 | 0.267 | 0.278 | 0.315 | 0.366 | 1.02 | 1.02 | 1.02 | 1 | 1.04 | 0.985 | 0.917 | 1.02 | 1.1 | 0.962 | 0.952 | 1.1 | 0.95 | 0.987
NCI-H441 | 0.576 | 0.632 | 0.835 | 0.607 | 0.592 | 0.363 | 0.402 | 0.452 | 0.377 | 0.384 | 0.665 | 0.324 | 0.434 | 1.31 | 1.14 | 1.08 | 1.09 | 1.12
